Measured values reported in patent US7109243B2 (IRM LLC, priority 2003, dated 2006).

Key:
Cathepsin K = target: T1, Cathepsin K (Homo sapiens, UniProt P43235); test: Cathepsin K inhibition assay (fluorogenic peptide substrate); selectivity ratio vs cathepsin S; type: biochemical; settings: ratio of cathepsin K inhibition constant to cathepsin S inhibition constant; Table II
T1 sequence (P43235 115-329): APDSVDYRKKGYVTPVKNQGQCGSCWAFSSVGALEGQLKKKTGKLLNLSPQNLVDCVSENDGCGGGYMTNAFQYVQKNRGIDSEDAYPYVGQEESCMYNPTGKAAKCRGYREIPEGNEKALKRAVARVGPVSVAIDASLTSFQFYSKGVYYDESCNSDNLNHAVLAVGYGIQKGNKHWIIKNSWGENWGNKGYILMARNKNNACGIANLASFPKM
Protocol: The optimal substrate for cathepsin K, acetyl-lysine-histidine-proline-lysine-amino carbamoyl coumarin, was identified from screening a combinatorial library of fluorogenic peptide substrates (Harris, J. L., B. J. Backes, et al., Proc Natl Acad Sci USA 2000, 97(14), 7754-9). Kinetic measurements are performed in a total reaction volume of 30 μl in 384-well microtiter plates. […] The reactions are initiated by adding the substrate, acetyl-lysine-histidine-proline-lysine-amino carbamoyl coumarin, to a final concentration of 40 μM. The rate of substrate hydrolysis is measured by monitoring the increase in fluorescence at an excitation wavelength of 380 nm and an emission wavelength of 450 nm that results from cleavage of the aniline bond in the substrate by the enzyme. The apparent inhibition constants for the compounds are determined from the enzyme progress curves ([…]. Elrod, et al., Anal Biochem 2000, 286(1), 45-50) and are then used to calculate the inhibition constants for competitive inhibitors. Selectivity for cathepsin S in the presence of cathepsin isozymes was determined by the ratio of the cathepsin isozyme inhibition constant of a compound of the present invention to the cathepsin S inhibition constant of the same compound.

Cathepsin S = Cathepsin S (Homo sapiens, UniProt P25774); test: Cathepsin S inhibition assay (fluorogenic peptide substrate); type: biochemical; settings: Table II, compounds of Formula I; read-out: Ki Cat. S
Cathepsin S, sequence (P25774 115-331, species assumed): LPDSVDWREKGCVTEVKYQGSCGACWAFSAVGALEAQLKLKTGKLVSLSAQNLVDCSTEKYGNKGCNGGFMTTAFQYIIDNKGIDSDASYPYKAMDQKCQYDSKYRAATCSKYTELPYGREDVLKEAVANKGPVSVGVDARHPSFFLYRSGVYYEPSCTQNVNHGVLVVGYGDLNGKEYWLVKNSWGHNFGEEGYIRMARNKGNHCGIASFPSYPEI
Protocol: “Inhibition constant”, Ki, is the dissociation constant of the enzyme-inhibitor complex, or the reciprocal of the binding affinity of the inhibitor to the enzyme. […] The inhibited rates are then fit by nonlinear regression to the following equation: […]
The assumption being made for the classical inhibition described above is that the free inhibitor concentration is equal to the total inhibitor concentration.
Kinetic measurements are performed in a total reaction volume of 30 μl in 384-well microtiter plates. […] The reactions are initiated by adding the substrate, acetyl-histidine-proline-valine-lysine-amino carbamoyl coumarin, to a final concentration of 50 μM. The rate of substrate hydrolysis is measured by monitoring the increase in fluorescence at an excitation wavelength of 380 nm and an emission wavelength of 450 nm that results from cleavage of the aniline bond in the substrate by the enzyme.

Row | Structure (SMILES) | Selectivity for Cat. S over Cat. K (Cathepsin K) | Ki (Cathepsin S) [nM]
1 | O=C(NCCNc1ccc(F)cc1)[C@H](CC1CCCCC1)NC(=O)C1(c2ccccc2)CC1 [Compound 319, 1-Phenyl-cyclopropanecarboxylic acid (S)-{2-cyclohexyl-1-[2-(4-fluoro-phenylamino)-ethylcarbamoyl]-ethyl}-amide] | ++ (++, >100) | < 100
2 | COc1ccc(NCCNC(=O)C(NC(=O)c2cccc(C)c2)c2ccc(F)cc2)cc1 (stereo not drawn) [Compound 227, N-{(4-Fluoro-phenyl)-[2-(4-methoxy-phenylamino)-ethylcarbamoyl]-methyl}-3-methyl-benzamide] | ++ (++, >100) | < 1000
3 | Cc1ccc(C(C)C(=O)N[C@@H](CC2CCCCC2)C(=O)NCCNc2ccc(F)cc2)cc1 (stereo partly drawn) [Compound 309, N-{2-cyclohexyl-1-(S)-[2-(4-fluoro-phenylamino)-ethylcarbamoyl]-ethyl}-2-p-tolyl-propionamide] | ++ (++, >100) | < 100
4 | COc1ccc(NCCNC(=O)[C@H](CCC2CCCCC2)NC(=O)c2cccc(-c3csc(C)n3)c2)cc1 [Compound 142, (S)-N-{3-Cyclohexyl-1-[2-(4-methoxy-phenylamino)-ethylcarbamoyl]-propyl}-3-(2-methyl-thiazol-4-yl)-benzamide] | +++ (+++, >1000) | < 100
5 | COc1ccc(NCCNC(=O)[C@H](CCC2CCCCC2)NC(=O)c2ccc(N3CCOCC3)cc2)cc1 [Compound 127, (S)-N-{3-Cyclohexyl-1-[2-(4-methoxy-phenylamino)-ethylcarbamoyl]-propyl}-4-morpholin-4-yl-benzamide] | ++ (++, >100) | < 1000
6 | COc1ccc(NCCNC(=O)[C@H](Cc2ccc(-c3cc(Cl)ccc3Cl)cc2)NC(=O)c2cccc(C)c2)cc1 [Compound 286, (S)-N-{2-(2′,5′-Dichloro-biphenyl-4-yl)-1-[2-(4-methoxy-phenylamino)-ethylcarbamoyl]-ethyl}-3-methyl-benzamide] | + (+, >10) | < 10000
7 | O=C(N[C@@H](CC1CCCCC1)C(=O)NCCNc1ccc(OC(F)(F)F)cc1)c1ccc(-c2ccc(C(F)(F)F)cc2)s1 [Compound 205, (S)-5-(4-Trifluoromethyl-phenyl)-thiophene-2-carboxylic acid {2-cyclohexyl-1-[2-(4-trifluoromethoxy-phenylamino)-ethylcarbamoyl]-ethyl}-amide] | ++ (++, >100) | < 100
8 | O=C(N[C@@H](CC1CCCCC1)C(=O)NCCNc1ccc(OC(F)(F)F)cc1)c1ccc(-c2ccccc2)s1 [Compound 62, 5-Phenyl-thiophene-2-carboxylic acid (S)-{2-cyclohexyl-1-[2-(4-trifluoromethoxy-phenylamino)-ethylcarbamoyl]-ethyl}-amide] | ++ (++, >100) | < 100
9 | O=C(N[C@@H](CC1CCCCC1)C(=O)NCCNc1ccc(OC(F)(F)F)cc1)c1ccc(-c2ccccc2Cl)cc1 [Compound 194, (S)-2′-Chloro-biphenyl-4-carboxylic acid {2-cyclohexyl-1-[2-(4-trifluoromethoxy-phenylamino)-ethylcarbamoyl]-ethyl}-amide] | + (+, >10) | < 1000
10 | COc1ccc(NCCNC(=O)[C@H](Cc2ccccc2)NC(=O)c2cnn(-c3ccccc3)c2C(F)(F)F)cc1 [Compound 41, (S)-1-Phenyl-5-trifluoromethyl-1H-pyrazole-4-carboxylic acid {1-[2-(4-methoxy-phenylamino)-ethylcarbamoyl]-2-phenyl-ethyl}-amide] | ++ (++, >100) | < 1000
11 | O=C(Cc1ccccc1)N[C@@H](CC1CCCCC1)C(=O)NCCNc1ccc(F)cc1 [Compound 303, 3-Cyclohexyl-N-[2-(4-fluoro-phenylamino)-ethyl]-2-(S)-phenylacetylamino-propionamide] | ++ (++, >100) | < 100
12 | O=C(Cn1cnnn1)N[C@@H](CC1CCCCC1)C(=O)NCCNc1ccc(F)cc1 [Compound 265, 3-Cyclohexyl-N-[2-(4-fluoro-phenylamino)-ethyl]-2-(S)-(2-tetrazol-1-yl-acetylamino)-propionamide] | ++ (++, >100) | < 1000
13 | COc1ccc(NCCNC(=O)[C@H](CC2CCCCC2)NC(=O)c2cccc(C(F)(F)F)c2F)cc1 [Compound 166, (S)-N-{2-Cyclohexyl-1-[2-(4-methoxy-phenylamino)-ethylcarbamoyl]-ethyl}-2-fluoro-3-trifluoromethyl-benzamide] | +++ (+++, >1000) | < 100
14 | COc1ccc(NCCNC(=O)[C@H](CC2CCCCC2)NC(=O)c2cc(OC)cc(OC)c2)cc1 [Compound 180, (S)-N-{2-Cyclohexyl-1-[2-(4-methoxy-phenylamino)-ethylcarbamoyl]-ethyl}-3,5-dimethoxy-benzamide] | + (+, >10) | < 100
15 | COc1ccc(NCCNC(=O)C(NC(=O)c2cccc(C)c2)C(C)c2ccccc2)cc1 (stereo not drawn) [Compound 269, erythro-N-{1-[2-(4-Methoxy-phenylamino)-ethylcarbamoyl]-2-phenyl-propyl}-3-methyl-benzamide] | + (+, >10) | < 10000
16 | COc1ccc(NCCNC(=O)[C@H](Cc2ccccc2)NC(=O)c2cnn(-c3ccc(Cl)cc3)c2C(F)(F)F)cc1 [Compound 44, (S)-1-(4-Chloro-phenyl)-5-trifluoromethyl-1H-pyrazole-4-carboxylic acid {1-[2-(4-methoxy-phenylamino)-ethylcarbamoyl]-2-phenyl-ethyl}-amide] | ++ (++, >100) | < 1000
17 | COc1ccc(CC(=O)N[C@@H](CC2CCCCC2)C(=O)NCCNc2ccc(F)cc2)cc1 [Compound 301, 3-Cyclohexyl-N-[2-(4-fluoro-phenylamino)-ethyl]-2-(S)-[2-(4-methoxy-phenyl)-acetylamino]-propionamide] | ++ (++, >100) | < 100
18 | COc1ccc(NCCNC(=O)[C@H](CC2CCCCC2)NC(=O)c2ccc(-c3ccccc3OC)cc2)cc1 [Compound 174, (S)-2′-Methoxy-biphenyl-4-carboxylic acid {2-cyclohexyl-1-[2-(4-methoxy-phenylamino)-ethylcarbamoyl]-ethyl}-amide] | + (+, >10) | < 100
19 | Cc1ccc(-c2ccc(C(=O)N[C@@H](CC3CCCCC3)C(=O)NCCNc3ccc(OC(F)(F)F)cc3)s2)cc1 [Compound 42, 5-p-Tolyl-thiophene-2-carboxylic acid (S)-{2-cyclohexyl-1-[2-(4-trifluoromethoxy-phenylamino)-ethylcarbamoyl]-ethyl}-amide] | + (+, >10) | < 1000
20 | COc1ccc(NCCNC(=O)[C@H](Cc2ccc(Br)cc2)NC(=O)c2cccc(C)c2)cc1 [Compound 241, (S)-N-{2-(4-Bromo-phenyl)-1-[2-(4-methoxy-phenylamino)-ethylcarbamoyl]-ethyl}-3-methyl-benzamide] | +++ (+++, >1000) | < 100
21 | Cc1nc(-c2ccc(C(=O)N[C@@H](CC3CCCCC3)C(=O)NCCNc3ccc(OC(F)(F)F)cc3)cc2)no1 [Compound 28] | + (+, >10) | < 1000
22 | COc1ccc(NCCNC(=O)C(NC(=O)c2cccc(C)c2)c2cccc3ccccc23)cc1 (stereo not drawn) [Compound 218, N-{[2-(4-Methoxy-phenylamino)-ethylcarbamoyl]-naphthalen-1-yl-methyl}-3-methyl-benzamide] | +++ (+++, >1000) | < 1000
23 | COc1ccc(NCCNC(=O)[C@H](Cc2ccc(-c3cccc(OC)c3OC)cc2)NC(=O)c2cccc(C)c2)cc1 [Compound 279, (S)-N-{2-(2′,3′-Dimethoxy-biphenyl-4-yl)-1-[2-(4-methoxy-phenylamino)-ethylcarbamoyl]-ethyl}-3-methyl-benzamide] | ++ (++, >100) | < 1000
24 | COc1ccc(NCCNC(=O)[C@H](Cc2ccc(OCc3ccccc3)cc2)NC(=O)c2cccc(C)c2)cc1 [Compound 247, (S)-N-{2-(4-Benzyloxy-phenyl)-1-[2-(4-methoxy-phenylamino)-ethylcarbamoyl]-ethyl}-3-methyl-benzamide] | +++ (+++, >1000) | < 100
